Source: US4062948A, “Dihydromocimycin antibiotics” (Gist-Brocades N.V., priority 1970, dated 1977)
Converted amounts (≈) assume the structure as drawn.

Assays:
Assay in all cases: micro liquid serial dilution test (Table II)
Format in all cases: cell-based
[1] = tested on: Staphylococcus aureus A 321; settings: A321, 18 hours at 30° C or 37° C, read-out: Minimum inhibitory concentration
Procedure: (§1) The microbiological activity of the antibiotic preparation towards a number of micoorganisms has been determined by a micro liquid serial dilution test:
(§2) A stock solution of the test compounds at a concentration of 200 μg/ml in 0.05 molar phosphate buffer at a pH of 6.5 was prepared and serial 1:1 dilutions were made with a liquid medium inoculated with the test organism, using conventional glass spot-test plates. The plates were incubated 18 hours at 30° C or 37° C. The minimum inhibitory concentration (MIC) which is the smallest concentration of compound completely inhibiting the growth of the test organism is read and calculated in μg/ml.

Salmonella dublin P 43 = settings: Salmonella enterica, P43; 18 hours at 30° C or 37° C; read-out: Minimum inhibitory concentration
Procedure: as §1, §2

[2] = tested on: Mycoplasma suipneumoniae A 2174; settings: Mesomycoplasma hyopneumoniae, A2174; 18 hours at 30° C or 37° C; read-out: Minimum inhibitory concentration
Procedure: as §1, §2

[3] = tested on: Bacillus subtilis ATCC 6633; settings: ATCC6633, 18 hours at 30° C or 37° C, read-out: Minimum inhibitory concentration
Procedure: as §1, §2

For `CC=CC=CC1OC(O)(C(CC)C(=O)NCC=CC=C(C)C(OC)C(C)C2OC(C=CC=CC=C(C)C(=O)c3c(O)cc[nH]c3=O)C(O)C2O)C(O)C(O)C1(C)C` (stereo not shown) [mocimycin], the MIC [1] was 100 µg/mL (≈ 125 µM), the MIC (Salmonella dublin P 43) was > 100 µg/mL and the MIC [2] was 1 µg/mL (≈ 1.25 µM). The MIC [3] was 50 µg/mL (≈ 62.7 µM).
